Values after ≈ are worked out from the molar mass of the structure shown. Values joined by “and” are separate entries in the source; they are usually repeats but may differ in a detail not shown here. Equal values may be shown once. Values belong to the compound of their own block, whether it stands above or below them.
Legend:
Test in all cases: ≥ marks a high value that may be exact or a test limit, other limits are often not marked, values filed in µg/mL are converted to µM
[1] = test system: Clavibacter michiganensis subsp. michiganensis DSM 46294
[2] = test system: Xanthomonas vesicatoria DSM 50861
[3] = test system: Staphylococcus aureus 90857
[4] = test system: Pectobacterium carotovorum subsp. carotovorum DSM 30168
[5] = test system: Pseudomonas corrugata DSM 7228
[6] = test system: Pseudomonas syringae pv. syringae DSM 10604
[7] = test system: Pseudomonas syringae pv. tomato DC3000
[8] = test system: Listeria monocytogenes LO28
[9] = test system: Cronobacter sakazakii DPC 6440
Escherichia coli BW25113 = test system: Escherichia coli BW25113
[10] = test system: Acinetobacter baumannii ATCC 19606
[11] = test system: Escherichia coli BW25113 ΔsbmA
[12] = test system: Klebsiella pneumoniae ATCC 700603
[13] = test system: Escherichia coli ATCC 25922
[14] = test system: Staphylococcus aureus ATCC 25923
[15] = test system: Pseudomonas aeruginosa ATCC 27853
Escherichia coli K91BK = test system: Escherichia coli K91BK
[16] = test system: Bacillus subtilis var. niger ATCC 9372
[17] = test system: Bacillus anthracis Sterne 34F2
[18] = test system: Salmonella enterica subsp. enterica serovar Typhimurium ATCC 14028

- MIC [8]: ≥ 156 µM
- MIC [9]: ≥ 625 µM
Compound: CC[C@H](C)[C@H](NC(=O)[C@@H](N)Cc1c[nH]c2ccccc12)C(=O)N[C@@H](CCC(N)=O)C(=O)N1CCC[C@H]1C(=O)N[C@@H](C)C(=O)N[C@H](C(=O)N[C@@H](CCCCN)C(=O)N[C@H](C(=O)N[C@H](C(=O)N1CCC[C@H]1C(=O)N[C@@H](Cc1ccc(O)cc1)C(=O)N[C@H](C(=O)N[C@@H](C)C(=O)N[C@@H](Cc1ccc(O)cc1)C(=O)N[C@@H](CC(C)C)C(=O)O)C(C)C)[C@@H](C)CC)C(C)C)[C@@H](C)O [WIQPATKVIPYVAYL]

- MIC (Escherichia coli BW25113): 2 µM (≈ 4.39 µg/mL)
- MIC [10]: 32 µM (≈ 70.3 µg/mL)
- MIC [11]: 16 µM and ≥ 32 µM
- MIC [12]: 8 µM (≈ 17.6 µg/mL)
- MIC [13]: 1.5 µM and 2 µM
- MIC [14]: > 64 µM
- MIC [15]: > 64 µM
Compound: CC[C@H](C)[C@H](NC(=O)[C@H](CCCN=C(N)N)NC(=O)[C@@H](N)Cc1c[nH]c2ccccc12)C(=O)N[C@@H](CCCN=C(N)N)C(=O)N1CCC[C@H]1C(=O)N[C@@H](CCCN=C(N)N)C(=O)N1CCC[C@H]1C(=O)N1CCC[C@H]1C(=O)N[C@@H](CCCN=C(N)N)C(=O)N[C@@H](CC(C)C)C(=O)N1CCC[C@H]1C(=O)N[C@@H](CCCN=C(N)N)C(=O)N[C@@H](Cc1c[nH]c2ccccc12)C(=O)N[C@@H](CCCN=C(N)N)C(=O)N1CCC[C@H]1C(=O)N[C@@H](CCCN=C(N)N)C(=O)O [WRIRPRPPRLPRWRPR]

- MIC [8]: 19.5 µM (≈ 36.6 µg/mL)
- MIC [9]: ≥ 78.1 µM
Compound: CC[C@H](C)[C@H](NC(=O)[C@@H](N)Cc1c[nH]c2ccccc12)C(=O)N[C@@H](CCC(N)=O)C(=O)N1CCC[C@H]1C(=O)N[C@@H](CCCCN)C(=O)N[C@@H](C)C(=O)N[C@@H](CCCCN)C(=O)N[C@H](C(=O)N[C@H](C(=O)N1CCC[C@H]1C(=O)N[C@@H](Cc1ccc(O)cc1)C(=O)N[C@H](C(=O)N[C@@H](CCCN=C(N)N)C(=O)N[C@@H](Cc1ccc(O)cc1)C(=O)N[C@@H](CC(C)C)C(=O)O)C(C)C)[C@@H](C)CC)C(C)C [WIQPKAKVIPYVRYL]

- MIC (Escherichia coli BW25113): 8 µM (≈ 19.3 µg/mL)
- MIC [10]: 32 µM (≈ 77 µg/mL)
- MIC [11]: ≥ 32 µM
- MIC [12]: > 64 µM
- MIC [18]: 32 µM (≈ 77 µg/mL)
- MIC [13]: 12 µM (≈ 28.9 µg/mL)
- MIC [14]: > 64 µM
- MIC [15]: > 64 µM
Compound: CC[C@H](C)[C@H](NC(=O)[C@@H]1CCCN1C(=O)[C@@H]1CCCN1C(=O)[C@H](CCCN=C(N)N)NC(=O)[C@H](Cc1ccccc1)NC(=O)[C@@H](N)CCCN=C(N)N)C(=O)N[C@@H](CCCN=C(N)N)C(=O)N[C@@H](CCCN=C(N)N)C(=O)N1CCC[C@H]1C(=O)N1CCC[C@H]1C(=O)N[C@H](C(=O)N[C@@H](CCCN=C(N)N)C(=O)N1CCC[C@H]1C(=O)N1CCC[C@H]1C(=O)N[C@@H](Cc1ccccc1)C(=O)N[C@@H](Cc1ccc(O)cc1)C(=O)N1CCC[C@H]1C(=O)N1CCC[C@H]1C(=O)N[C@@H](Cc1ccccc1)C(=O)O)[C@@H](C)CC [RFRPPIRRPPIRPPFYPPF]

- MIC [8]: 9.77 µM (≈ 18.3 µg/mL)
- MIC [9]: ≥ 39.1 µM
Compound: CC[C@H](C)[C@H](NC(=O)[C@@H](N)Cc1c[nH]c2ccccc12)C(=O)N[C@@H](CCC(N)=O)C(=O)N[C@@H](C)C(=O)N[C@@H](CCCCN)C(=O)N[C@H](C(=O)N[C@@H](CCCCN)C(=O)N[C@H](C(=O)N[C@H](C(=O)N1CCC[C@H]1C(=O)N[C@@H](Cc1ccc(O)cc1)C(=O)N[C@H](C(=O)N[C@@H](CCCN=C(N)N)C(=O)N[C@@H](Cc1ccc(O)cc1)C(=O)N[C@@H](CC(C)C)C(=O)O)C(C)C)[C@@H](C)CC)C(C)C)[C@@H](C)O [WIQAKTKVIPYVRYL]

- MIC [8]: ≥ 39.1 µM
- MIC [9]: ≥ 78.1 µM
Compound: CC[C@H](C)[C@H](NC(=O)[C@@H](N)Cc1c[nH]c2ccccc12)C(=O)N[C@@H](CCC(N)=O)C(=O)N1CCC[C@H]1C(=O)N[C@@H](CCCCN)C(=O)N[C@H](C(=O)N[C@@H](CCCCN)C(=O)N[C@H](C(=O)N[C@H](C(=O)N1CCC[C@H]1C(=O)N[C@@H](Cc1ccc(O)cc1)C(=O)N[C@H](C(=O)N[C@@H](CCCN=C(N)N)C(=O)N[C@@H](Cc1ccc(O)cc1)C(=O)N[C@@H](CC(C)C)C(=O)O)C(C)C)[C@@H](C)CC)C(C)C)[C@@H](C)O [WIQPKTKVIPYVRYL]

Further lines, the compound ahead of its results:

Compound: CC[C@H](C)[C@H](NC(=O)[C@H](CCCCN)NC(=O)[C@H](CCCCN)NC(=O)[C@H](CC(C)C)NC(=O)[C@H](CCCCN)NC(=O)[C@H](CCCN=C(N)N)NC(=O)[C@@H](N)CC(C)C)C(=O)N[C@@H](CC(C)C)C(=O)N[C@@H](CCCCN)C(=O)N[C@@H](CCCCN)C(=O)N[C@@H](CC(C)C)C(=O)N[C@@H](Cc1ccccc1)C(N)=O [LRKLKKILKKLF]
- MIC [1]: 0.164 µM (≈ 0.25 µg/mL)
- MIC [2]: 0.0654 µM (≈ 0.0999 µg/mL)
- MIC [3]: 6.25 µM (≈ 9.54 µg/mL)
- MIC [4]: 1.64 µM (≈ 2.5 µg/mL)
- MIC [5]: 0.164 µM (≈ 0.25 µg/mL)
- MIC [6]: 0.164 µM (≈ 0.25 µg/mL)
- MIC [7]: 0.327 µM (≈ 0.5 µg/mL)

Compound: CC[C@H](C)[C@H](NC(=O)[C@H](CCCN=C(N)N)NC(=O)[C@H](CCCN=C(N)N)NC(=O)[C@H](CC(C)C)NC(=O)[C@H](CC(N)=O)NC(=O)[C@H](CCCCN)NC(C)=O)C(=O)N[C@H](C(=O)N[C@@H](CCCN=C(N)N)C(=O)N[C@@H](CCCCN)C(=O)N[C@H](C(=O)N[C@H](C(=O)N[C@@H](Cc1cnc[nH]1)C(=O)N[C@H](C(=O)N[C@H](C(=O)N[C@@H](CCCCN)C(=O)N[C@@H](CCCCN)C(=O)N[C@@H](Cc1ccc(O)cc1)C(=O)NCC(N)=O)[C@@H](C)CC)[C@@H](C)CC)[C@@H](C)CC)[C@@H](C)CC)[C@@H](C)O [KNLRRITRKIIHIIKKYG]
- MIC (Escherichia coli K91BK): ≥ 100 µM
- MIC [16]: 1.56 µM (≈ 3.58 µg/mL)
- MIC [17]: 25 µM (≈ 57.3 µg/mL)

Compound: CC[C@H](C)[C@H](NC(=O)[C@H](CCCCN)NC(=O)[C@H](CO)NC(=O)[C@H](Cc1ccccc1)NC(=O)[C@H](CC(C)C)NC(=O)[C@H](CCCCN)NC(=O)[C@H](CCC(=O)O)NC(=O)[C@H](CC(C)C)NC(=O)[C@H](CCCN=C(N)N)NC(=O)[C@H](CCCCN)NC(=O)[C@H](Cc1ccccc1)NC(C)=O)C(=O)N[C@@H](Cc1c[nH]c2ccccc12)C(=O)N[C@@H](CC(N)=O)C(=O)N[C@@H](Cc1c[nH]c2ccccc12)C(=O)N[C@@H](CCCCN)C(N)=O [FKRLEKLFSKIWNWK]
- MIC (Escherichia coli K91BK): ≥ 100 µM
- MIC [16]: 6.25 µM (≈ 12.9 µg/mL)
- MIC [17]: 14.9 µM (≈ 30.8 µg/mL)

Compound: CC[C@H](C)[C@H](NC(=O)[C@H](CC(C)C)NC(=O)[C@H](CCCN=C(N)N)NC(=O)[C@H](CCCN=C(N)N)NC(=O)[C@H](CC(C)C)NC(=O)[C@@H](NC(=O)[C@H](CCCN=C(N)N)NC(=O)[C@H](CCCN=C(N)N)NC(=O)[C@@H](NC(=O)[C@@H](NC(=O)[C@H](CCCN=C(N)N)NC(=O)[C@@H](N)CC(C)C)[C@@H](C)CC)[C@@H](C)CC)[C@@H](C)CC)C(N)=O [LRIIRRILRRLI]
- MIC [1]: 1.57 µM (≈ 2.5 µg/mL)
- MIC [2]: 0.628 µM (≈ 0.999 µg/mL)
- MIC [3]: 25 µM (≈ 39.8 µg/mL)
- MIC [4]: 1.57 µM (≈ 2.5 µg/mL)
- MIC [5]: 1.57 µM (≈ 2.5 µg/mL)
- MIC [6]: 1.57 µM (≈ 2.5 µg/mL)
- MIC [7]: 0.628 µM (≈ 0.999 µg/mL)

Compound: CC[C@H](C)[C@H](NC(=O)[C@@H](NC(=O)[C@H](CCCCN)NC(=O)[C@H](CCCCN)NC(=O)[C@@H](NC(=O)[C@@H](NC(=O)[C@H](CCCCN)NC(=O)[C@H](C)NC(=O)[C@H](CCCCN)NC(=O)[C@H](CCCCN)NC(=O)[C@H](CCCCN)NC(=O)[C@@H](N)CCCN=C(N)N)[C@@H](C)CC)[C@@H](C)CC)[C@@H](C)CC)C(N)=O [RKKKAKIIKKII]
- MIC [1]: 6.82 µM (≈ 9.99 µg/mL)
- MIC [2]: 6.82 µM (≈ 9.99 µg/mL)
- MIC [3]: ≥ 62.5 µM
- MIC [4]: 6.82 µM (≈ 9.99 µg/mL)
- MIC [5]: 6.82 µM (≈ 9.99 µg/mL)
- MIC [6]: 0.682 µM (≈ 0.999 µg/mL)
- MIC [7]: 6.82 µM (≈ 9.99 µg/mL)

Compound: CC(=O)N[C@@H](CCCCN)C(=O)N[C@@H](CC(C)C)C(=O)N[C@@H](Cc1c[nH]c2ccccc12)C(=O)N[C@@H](CCCCN)C(=O)N[C@@H](CCCCN)C(=O)N[C@@H](Cc1c[nH]c2ccccc12)C(=O)N[C@@H](CCCCN)C(=O)N[C@@H](CCCCN)C(=O)N[C@@H](Cc1c[nH]c2ccccc12)C(=O)N[C@@H](CC(C)C)C(=O)N[C@@H](CCCCN)C(N)=O [KLWKKWKKWLK]
- MIC (Escherichia coli K91BK): ≥ 100 µM
- MIC [16]: 6.25 µM (≈ 10.1 µg/mL)
- MIC [17]: ≥ 100 µM

Reference: DBAASP
